target: T1, human JAK2 (Homo sapiens, UniProt O60674); assay: In vitro JAK kinase assay (HTRF, phosphorylation of biotinylated peptide); format: biochemical; conditions: catalytic domain a.a. 828-1132, 30 μM ATP, 500 nM peptide, room temperature 1 hr; read-out: JAK-2 IC50
T1 construct: JAK2 (a.a. 828-1132); His tag (N); made in house; host or cells: insect cells (baculovirus)
In short: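 IC50 from HTRF detection (Eu-Py20 antibody, SA-APC) of biotinylated-peptide phosphorylation (500 nM), run 1 h at RT. Enzyme: N-His human JAK2 kinase domain a.a. 828-1132 from insect cells; ATP 30 μM; buffer 50 mM Tris pH 7.8 with NaCl, DTT, BSA.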

T1 sequence (O60674 828-1132): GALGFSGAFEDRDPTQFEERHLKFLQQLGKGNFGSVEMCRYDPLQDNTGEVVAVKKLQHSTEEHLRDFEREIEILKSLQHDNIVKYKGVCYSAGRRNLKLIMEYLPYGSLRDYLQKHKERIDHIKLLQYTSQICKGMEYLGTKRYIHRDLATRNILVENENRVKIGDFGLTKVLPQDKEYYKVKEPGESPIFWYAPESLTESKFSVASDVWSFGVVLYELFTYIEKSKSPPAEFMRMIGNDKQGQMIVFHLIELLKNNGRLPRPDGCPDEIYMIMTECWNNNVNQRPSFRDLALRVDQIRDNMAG

Row | IC50 | Structure (SMILES)
1 | < 100 nM | CCN(CC)c1ccc(Nc2ncc(C)c(-c3cnn(C(CC#N)C4CCCC4)c3)n2)cc1 (racemic) [Example 79, 3-cyclopentyl-3-(4-(2-(4-(diethylamino)phenylamino)-5-methylpyrimidin-4-yl)-1H-pyrazol-1-yl)propanenitrile]
2 | < 100 nM | N#CCC(C1CCOCC1)n1cc(-c2ccnc(Nc3ccc(C(=O)N4CC[C@H](C#N)C4)cc3)n2)cn1 (mixture of isomers) [Example 317, (3S)-1-{4-[(4-{1-[2-cyano-1-(tetrahydro-2H-pyran-4-yl)ethyl]-1H-pyrazol-4-yl}pyrimidin-2-yl)amino]benzoyl}pyrrolidine-3-carbonitrile]
3 | < 100 nM | CCS(=O)(=O)N1CC(CC#N)(n2cc(-c3ccnc(Nc4ccc(C(=O)N5CC[C@@H](O)C5)cc4)n3)cn2)C1 [Example 278, (R)-2-(1-(ethylsulfonyl)-3-(4-(2-(4-(3-hydroxypyrrolidine-1-carbonyl)phenylamino)pyrimidin-4-yl)-1H-pyrazol-1-yl)azetidin-3-yl)acetonitrile]
4 | < 100 nM | N#CCC(C1CCCC1)n1cc(-c2ccnc(Nc3ccc(NC(=O)c4ccno4)cc3)n2)cn1 (racemic) [Example 188, N-(4-(4-(1-(2-cyano-1-cyclopentylethyl)-1H-pyrazol-4-yl)pyrimidin-2-ylamino)phenyl)isoxazole-5-carboxamide]
5 | < 100 nM | N#CCC(CC1CCN(C(=O)c2ccc(F)cc2F)CC1)n1cc(-c2ccnc(Nc3ccc(-n4ccnc4)cc3)n2)cn1 (racemic) [Example 1, 3-(4-(2-(4-(1H-imidazol-1-yl)phenylamino)pyrimidin-4-yl)-1H-pyrazol-1-yl)-4-(1-(2,4-difluorobenzoyl)piperidin-4-yl)butanenitrile]
6 | < 100 nM | COc1cnc(Nc2ccc(N3CCCC3=O)cc2)nc1-c1cnn(C(CC#N)C2CCCC2)c1 (racemic) [Example 130, 3-cyclopentyl-3-(4-(5-methoxy-2-(4-(2-oxopyrrolidin-1-yl)phenylamino)pyrimidin-4-yl)-1H-pyrazol-1-yl)propanenitrile]
7 | < 100 nM | N#CCC(C1CC1)n1cc(-c2ccnc(Nc3ccc(C(=O)N4CCOCC4)cc3)n2)cn1 (racemic) [Example 260, 3-cyclopropyl-3-(4-(2-(4-(morpholine-4-carbonyl)phenylamino)pyrimidin-4-yl)-1H-pyrazol-1-yl)propanenitrile]
8 | < 100 nM | N#CCC(C1CC1)n1cc(-c2ccnc(Nc3ccc(N4CCOCC4=O)cc3)n2)cn1 (racemic) [Example 180, 3-cyclopropyl-3-(4-(2-(4-(3-oxomorpholino)phenylamino)pyrimidin-4-yl)-1H-pyrazol-1-yl)propanenitrile]
9 | < 100 nM | N#CCC(C1CCCC1)n1cc(-c2ccnc(Nc3cccc(C(=O)N4CC[C@@H](O)C4)c3)n2)cn1 (mixture of isomers) [Example 141, 3-cyclopentyl-3-(4-(2-(3-((R)-3-hydroxypyrrolidine-1-carbonyl)phenylamino)pyrimidin-4-yl)-1H-pyrazol-1-yl)propanenitrile]
10 | < 100 nM | N#CCC1(n2cc(-c3ccnc(Nc4ccc(OCCN5CCCC5)cc4)n3)cn2)CC(C#N)C1 (single isomer, unassigned) [Example 307, 3-(cyanomethyl)-3-[4-(2-{[4-(2-pyrrolidin-1-ylethoxy)phenyl]amino}pyrimidin-4-yl)-1H-pyrazol-1-yl]cyclobutanecarbonitrile]
11 | < 100 nM | N#CCC(C1CC1)n1cc(-c2ccnc(Nc3ccc(C(=O)NC4CCOCC4)cc3)n2)cn1 (racemic) [Example 254, 4-(4-(1-(2-cyano-1-cyclopropylethyl)-1H-pyrazol-4-yl)pyrimidin-2-ylamino)-N-(tetrahydro-2H-pyran-4-yl)benzamide]
12 | < 100 nM | N#CCC1(n2cc(-c3ccnc(Nc4ccc(-c5cnco5)cc4)n3)cn2)CC(C#N)C1 (single isomer, unassigned) [Example 342, 3-(cyanomethyl)-3-[4-(2-{[4-(1,3-oxazol-5-yl)phenyl]amino}pyrimidin-4-yl)-1H-pyrazol-1-yl]cyclobutanecarbonitrile]
13 | < 100 nM | CC(NC(=O)c1cccc(Nc2nccc(-c3cnn(C(CC#N)C4CCCC4)c3)n2)c1)c1ccccn1 (mixture of isomers) [Example 156, 3-(4-(1-(2-cyano-1-cyclopentylethyl)-1H-pyrazol-4-yl)pyrimidin-2-ylamino)-N-(1-(pyridin-2-yl)ethyl)benzamide]
14 | < 100 nM | N#CCC1(n2cc(-c3ccnc(Nc4ccc(N5CCOCC5)cc4)n3)cn2)CC(C#N)C1 (single isomer, unassigned) [Example 248, 3-(cyanomethyl)-3-(4-(2-(4-morpholinophenylamino)pyrimidin-4-yl)-1H-pyrazol-1-yl)cyclobutanecarbonitrile]
15 | < 100 nM | CC(=O)Nc1ccc(Nc2nccc(-c3cnn(C(CC#N)CC4CCN(S(=O)(=O)c5ccn(C)n5)CC4)c3)n2)cc1 (racemic) [Example 45, N-(4-(4-(1-(1-cyano-3-(1-(1-methyl-1H-pyrazol-3-ylsulfonyl)piperidin-4-yl)propan-2-yl)-1H-pyrazol-4-yl)pyrimidin-2-ylamino)phenyl)acetamide]
16 | < 100 nM | N#CCC(C1CCCC1)n1cc(-c2ccnc(Nc3ccc(OCCN4CCCC4)cc3)n2)cn1 (racemic) [Example 306, 3-cyclopentyl-3-[4-(2-{[4-(2-pyrrolidin-1-ylethoxy)phenyl]amino}pyrimidin-4-yl)-1H-pyrazol-1-yl]propanenitrile]
17 | < 100 nM | N#CCC(C1CCCC1)n1cc(-c2ccnc(Nc3cccc(C(=O)N4CCCC4)c3)n2)cn1 (racemic) [Example 139, 3-cyclopentyl-3-(4-(2-(3-(pyrrolidine-1-carbonyl)phenylamino)pyrimidin-4-yl)-1H-pyrazol-1-yl)propanenitrile]
18 | < 100 nM | CCS(=O)(=O)N1CC(CC#N)(n2cc(-c3ccnc(Nc4ccc(C(=O)N5CCC5)cc4)n3)cn2)C1 [Example 273, 2-(3-(4-(2-(4-(azetidine-1-carbonyl)phenylamino)pyrimidin-4-yl)-1H-pyrazol-1-yl)-1-(ethylsulfonyl)azetidin-3-yl)acetonitrile]
19 | < 100 nM | N#CCC(C1CCCC1)n1cc(-c2ccnc(Nc3ccc(NC(=O)O[C@@H]4CCOC4)cc3)n2)cn1 (mixture of isomers) [Example 199, (R)-tetrahydrofuran-3-yl 4-(4-(1-(2-cyano-1-cyclopentylethyl)-1H-pyrazol-4-yl)pyrimidin-2-ylamino)phenylcarbamate]
20 | < 100 nM | Cc1cc(C(=O)Nc2ccc(Nc3nccc(-c4cnn(C(CC#N)C5CCCC5)c4)n3)cc2)no1 (racemic) [Example 187, N-(4-(4-(1-(2-cyano-1-cyclopentylethyl)-1H-pyrazol-4-yl)pyrimidin-2-ylamino)phenyl)-5-methylisoxazole-3-carboxamide]
21 | < 100 nM | N#CCC1(n2cc(-c3ccnc(Nc4ccc(C(=O)N5CCCC5)cc4)n3)cn2)CC(C#N)C1 (single isomer, unassigned) [Example 288, 3-(cyanomethyl)-3-(4-(2-(4-(pyrrolidine-1-carbonyl)phenylamino)pyrimidin-4-yl)-1H-pyrazol-1-yl)cyclobutanecarbonitrile]
22 | < 100 nM | Cc1cc(CNC(=O)c2cccc(Nc3nccc(-c4cnn(C(CC#N)C5CCCC5)c4)n3)c2)no1 (racemic) [Example 148, 3-(4-(1-(2-cyano-1-cyclopentylethyl)-1H-pyrazol-4-yl)pyrimidin-2-ylamino)-N-((5-methylisoxazol-3-yl)methyl)benzamide]

From US8309718B2, “4-pyrazolyl-N-arylpyrimidin-2-amines and 4-pyrazolyl-N-heteroarylpyrimidin-2-amines as janus kinase inhibitors” (Incyte Corporation, priority 2007, dated 2012)
